Test results from PubChem BioAssay AID248 (DTP/NCI, 2004).
Where “and” joins values, the source holds several entries; their conditions need not be identical. Equal values may be shown once. Inconclusive results and toxic doses are left out. Rule as the data show it: active = T/C of 150% or more; inactive = T/C below 125%.

Tested on: L1210 leukemia ip in BDF1 mice, survival T/C
Experiment: NCI In Vivo Anticancer Drug Screen. Data for tumor model L1210 Leukemia (intraperitoneal) in B6D2F1 (BDF1) mice
Details: higher = longer survival
Procedure, shortened: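 Ratio derived from survival: compound-dosed mice over vehicle-dosed mice, all bearing a transplantable tumor.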

[1] = endpoint: mean survival time, dose: 100.0 mg/kg/injection, schedule: Q01DX009 (ip), vehicle: Klucel (hydroxypropylcellulose) (HPC)
[2] = endpoint: mean survival time, dose: 100.0 mg/kg/injection, schedule: Q04DX003 (ip), vehicle: saline with Tween-80
[3] = endpoint: mean survival time, dose: 200.0 mg/kg/injection, schedule: Q04DX003 (ip), vehicle: saline with Tween-80
[4] = endpoint: mean survival time, dose: 400.0 mg/kg/injection, schedule: Q04DX003 (ip), vehicle: saline with Tween-80
[5] = endpoint: mean survival time, dose: 200.0 mg/kg/injection, schedule: Q01DX009 (ip), vehicle: Klucel (hydroxypropylcellulose) (HPC)
[6] = endpoint: mean survival time, dose: 100.0 mg/kg/injection, schedule: Q04DX003 (ip), vehicle: Klucel (hydroxypropylcellulose) (HPC)
[7] = endpoint: mean survival time, dose: 200.0 mg/kg/injection, schedule: Q04DX003 (ip), vehicle: Klucel (hydroxypropylcellulose) (HPC)
[8] = endpoint: mean survival time, dose: 400.0 mg/kg/injection, schedule: Q04DX003 (ip), vehicle: Klucel (hydroxypropylcellulose) (HPC)
[9] = endpoint: mean survival time, dose: 100.0 mg/kg/injection, schedule: Q01DX001 (ip), vehicle: saline
[10] = endpoint: mean survival time, dose: 200.0 mg/kg/injection, schedule: Q01DX001 (ip), vehicle: saline
[11] = endpoint: mean survival time, dose: 400.0 mg/kg/injection, schedule: Q01DX001 (ip), vehicle: saline
[12] = endpoint: mean survival time, dose: 100.0 mg/kg/injection, schedule: Q01DX001 (ip), vehicle: Klucel (hydroxypropylcellulose) (HPC)
[13] = endpoint: mean survival time, dose: 200.0 mg/kg/injection, schedule: Q01DX001 (ip), vehicle: Klucel (hydroxypropylcellulose) (HPC)
[14] = endpoint: mean survival time, dose: 400.0 mg/kg/injection, schedule: Q01DX001 (ip), vehicle: Klucel (hydroxypropylcellulose) (HPC)
[15] = endpoint: mean survival time, dose: 100.0 mg/kg/injection, schedule: Q01DX009 (ip), vehicle: saline with Tween-80
[16] = endpoint: mean survival time, dose: 200.0 mg/kg/injection, schedule: Q01DX009 (ip), vehicle: saline with Tween-80
[17] = endpoint: mean survival time, dose: 400.0 mg/kg/injection, schedule: Q01DX009 (ip), vehicle: saline with Tween-80
[18] = endpoint: mean survival time, dose: 100.0 mg/kg/injection, schedule: Q01DX001 (ip), vehicle: carboxymethylcellulose (CMC)
[19] = endpoint: mean survival time, dose: 200.0 mg/kg/injection, schedule: Q01DX001 (ip), vehicle: carboxymethylcellulose (CMC)
[20] = endpoint: mean survival time, dose: 400.0 mg/kg/injection, schedule: Q01DX001 (ip), vehicle: carboxymethylcellulose (CMC)
[21] = endpoint: mean survival time, dose: 50.0 mg/kg/injection, schedule: Q04DX002 (ip), vehicle: saline with Tween-80
[22] = endpoint: mean survival time, dose: 100.0 mg/kg/injection, schedule: Q04DX002 (ip), vehicle: saline with Tween-80

Measured: T/C

CC(=O)OC12C(=O)OC(=O)C1(C)C1c3ccccc3C2c2ccccc21 (stereo unspecified)
inactive: endpoint: mean survival time, dose: 25.0 mg/kg/injection, schedule: Q01DX009 (ip), vehicle: Klucel (hydroxypropylcellulose) (HPC) 111 % of control | endpoint: mean survival time, dose: 50.0 mg/kg/injection, schedule: Q01DX009 (ip), vehicle: Klucel (hydroxypropylcellulose) (HPC) 106 % of control | [1] 98 % of control

CN(C)CCCN(CCCN(C)C)Cc1ccccc1
inactive: endpoint: mean survival time, dose: 75.0 mg/kg/injection, schedule: Q01DX001 (ip), vehicle: saline 104 % of control | endpoint: mean survival time, dose: 150.0 mg/kg/injection, schedule: Q01DX001 (ip), vehicle: saline 97 % of control

O=C(O)c1ccccc1Nc1cccc(C(F)(F)F)c1
inactive: [2] 104 % of control | [3] 104 % of control | [4] 104 % of control

COc1ccc(C(Nc2ccc([N+](=O)[O-])cc2)P(=O)(c2ccccc2)c2ccccc2)cc1 (stereo unspecified)
inactive: endpoint: mean survival time, dose: 100.0 mg/kg/injection, schedule: Q01DX009 (ip), vehicle: saline 102 % of control | endpoint: mean survival time, dose: 200.0 mg/kg/injection, schedule: Q01DX009 (ip), vehicle: saline 95 % of control | endpoint: mean survival time, dose: 400.0 mg/kg/injection, schedule: Q01DX009 (ip), vehicle: saline 106 % of control

N#CSC1CSC(SC2=NC(SC#N)CS2)=N1 (stereo unspecified)
inactive: [1] 94 % of control | endpoint: mean survival time, dose: 100.0 mg/kg/injection, schedule: Q04DX003 (ip), vehicle: saline 98 % of control | [5] 104 % of control | endpoint: mean survival time, dose: 200.0 mg/kg/injection, schedule: Q04DX003 (ip), vehicle: saline 92 % of control

Cc1ccc(NC(=O)C(c2ccccc2)c2ccccc2)cc1Cl
inactive: [1] 108 % of control | [6] 88 % of control | [5] 95 % of control | [7] 91 % of control | endpoint: mean survival time, dose: 400.0 mg/kg/injection, schedule: Q01DX009 (ip), vehicle: Klucel (hydroxypropylcellulose) (HPC) 108 % of control | [8] 101 % of control

COC1=NS(=O)(=O)C2CCCC/C=C\C2O1 (stereo unspecified)
inactive: endpoint: mean survival time, dose: 150.0 mg/kg/injection, schedule: Q04DX002 (ip), vehicle: Klucel (hydroxypropylcellulose) (HPC) 110 % of control | endpoint: mean survival time, dose: 300.0 mg/kg/injection, schedule: Q04DX002 (ip), vehicle: Klucel (hydroxypropylcellulose) (HPC) 103 % of control

Cc1ccnc(NS(=O)(=O)c2ccc(N=Nc3ccc(N)nc3N)cc2)n1
inactive: [9] 100 % of control | [10] 102 % of control | [11] 100 % of control

NS(=O)(=O)c1ccc(NC(=O)Nc2cccc(CNC(=O)COc3ccc(Cl)cc3C(=O)O)c2)cc1
inactive: [12] 98 % of control | [13] 91 % of control | [14] 98 % of control

CCOC(=O)CN=C(C)OCC
inactive: [15] 100 % of control | [2] 107 % of control | [16] 99 % of control | [3] 97 % of control | [17] 90 % of control | [4] 103 % of control

O=S(=O)(Cc1ccccc1)CC(Cl)c1ccccc1 (stereo unspecified)
inactive: [12] 98 % of control | [6] 97 % of control | [13] 98 % of control | [7] 101 % of control | [14] 104 % of control | [8] 92 % of control

O=C(Nc1ccc(C2=NCCCN2)cc1)c1ccc(C(=O)Nc2ccc(C3=NCCCN3)cc2)c(Cl)c1
inactive: endpoint: mean survival time, dose: 0.04 mg/kg/injection, schedule: Q01DX015 (ip), vehicle: water 98 % of control | endpoint: mean survival time, dose: 0.09 mg/kg/injection, schedule: Q01DX015 (ip), vehicle: water 101 % of control | endpoint: mean survival time, dose: 0.18 mg/kg/injection, schedule: Q01DX015 (ip), vehicle: water 95 % of control | endpoint: mean survival time, dose: 0.37 mg/kg/injection, schedule: Q01DX015 (ip), vehicle: water 101 % of control | endpoint: mean survival time, dose: 0.75 mg/kg/injection, schedule: Q01DX015 (ip), vehicle: water 107 % of control

CC(=O)N1c2cc3ccccc3cc2N(C(C)=O)c2cc3ccccc3cc21
inactive: endpoint: mean survival time, dose: 100.0 mg/kg/injection, schedule: Q01DX001 (ip), vehicle: acetone 92 % of control | [15] 103 % of control | endpoint: mean survival time, dose: 200.0 mg/kg/injection, schedule: Q01DX001 (ip), vehicle: acetone 90 % of control | [16] 106 % of control | endpoint: mean survival time, dose: 400.0 mg/kg/injection, schedule: Q01DX001 (ip), vehicle: acetone 88 % of control | [17] 95 % of control

Cc1ccc(S(=O)(=O)n2cc[nH]c2=O)cc1
inactive: [12] 100 % of control | [13] 100 % of control | [14] 105 % of control

O=C1c2ccccc2CCCC1Br (stereo unspecified)
inactive: [18] 95 % of control | [19] 87 % of control | [20] 92 % of control

CSCC(NC(C)=O)C(=O)O (stereo unspecified)
inactive: endpoint: mean survival time, dose: 50.0 mg/kg/injection, schedule: Q01DX001 (ip), vehicle: Klucel (hydroxypropylcellulose) (HPC) 100 % of control | [12] 98 % of control | [13] 91 % of control

O=C1NC(=O)C(CSCc2ccccc2)(CSCc2ccccc2)N1
inactive: endpoint: mean survival time, dose: 50.0 mg/kg/injection, schedule: Q01DX009 (ip), vehicle: saline with Tween-80 94 % of control | [15] 92 % of control and 102 % of control | [16] 94 % of control and 97 % of control | [17] 100 % of control

NNC(=O)OCc1ccccc1
inactive: endpoint: mean survival time, dose: 25.0 mg/kg/injection, schedule: Q04DX002 (ip), vehicle: saline with Tween-80 100 % of control | [21] 100 % of control | [22] 100 % of control

COc1cc([C@@H]2c3cc4c(c(O)c3C[C@H]3COC(=O)[C@@H]32)OCO4)cc(OC)c1OC
inactive: endpoint: mean survival time, dose: 0.06 mg/kg/injection, schedule: Q01DX Z (ip), vehicle: saline 100 % of control | endpoint: mean survival time, dose: 0.12 mg/kg/injection, schedule: Q01DX Z (ip), vehicle: saline 103 % of control | endpoint: mean survival time, dose: 0.25 mg/kg/injection, schedule: Q01DX Z (ip), vehicle: saline 113 % of control | endpoint: mean survival time, dose: 0.5 mg/kg/injection, schedule: Q01DX Z (ip), vehicle: saline 116 % of control | endpoint: mean survival time, dose: 1.0 mg/kg/injection, schedule: Q01DX Z (ip), vehicle: saline 99 % of control | endpoint: mean survival time, dose: 1.5 mg/kg/injection, schedule: Q01DX Z (ip), vehicle: saline 115 % of control | endpoint: mean survival time, dose: 2.25 mg/kg/injection, schedule: Q01DX Z (ip), vehicle: saline 108 % of control | endpoint: mean survival time, dose: 28.0 mg/kg/injection, schedule: Q01DX001 (ip), vehicle: saline 102 % of control | endpoint: mean survival time, dose: 45.0 mg/kg/injection, schedule: Q01DX001 (ip), vehicle: saline 122 % of control | endpoint: mean survival time, dose: 50.0 mg/kg/injection, schedule: Q01DX001 (ip), vehicle: saline 101 % of control | endpoint: mean survival time, dose: 65.0 mg/kg/injection, schedule: Q01DX001 (ip), vehicle: saline 111 % of control | [9] 112 % of control | [10] 112 % of control | [11] 117 % of control | endpoint: median survival time, dose: 0.25 mg/kg/injection, schedule: Q01DX009 (ip), vehicle: Klucel (hydroxypropylcellulose) (HPC) 100 % of control | endpoint: median survival time, dose: 0.5 mg/kg/injection, schedule: Q01DX009 (ip), vehicle: Klucel (hydroxypropylcellulose) (HPC) 100 % of control | endpoint: median survival time, dose: 1.0 mg/kg/injection, schedule: Q01DX009 (ip), vehicle: Klucel (hydroxypropylcellulose) (HPC) 100 % of control | endpoint: median survival time, dose: 2.0 mg/kg/injection, schedule: Q01DX009 (ip), vehicle: Klucel (hydroxypropylcellulose) (HPC) 100 % of control

NNc1cc(=O)n2ccccc2n1
inactive: [18] 98 % of control | [19] 98 % of control | [20] 101 % of control

C/C(Cl)=C/CC1=C(O)c2ccccc2C(=O)C1=O
inactive: endpoint: mean survival time, dose: 25.0 mg/kg/injection, schedule: Q01DX001 (ip), vehicle: water 104 % of control | endpoint: mean survival time, dose: 50.0 mg/kg/injection, schedule: Q01DX001 (ip), vehicle: water 101 % of control | endpoint: mean survival time, dose: 75.0 mg/kg/injection, schedule: Q01DX001 (ip), vehicle: water 97 % of control

C1CC2CC1CC1C3CC4CCC(C4)C3OC21 (stereo unspecified)
inactive: [21] 98 % of control | [22] 102 % of control | endpoint: mean survival time, dose: 200.0 mg/kg/injection, schedule: Q04DX002 (ip), vehicle: saline with Tween-80 91 % of control | endpoint: mean survival time, dose: 400.0 mg/kg/injection, schedule: Q04DX002 (ip), vehicle: saline with Tween-80 95 % of control
